In article PMC6931042 (Bioorganic chemistry, 2018):
pIC50: −log10 of the molar value. Where two headings read alike, the source gives them in different places.

Experiments:
OVCAR-5 = experiment: NCI in vitro five dose anticancer assay; type: cell-based, human
MOLT-4 = experiment: NCI in vitro five dose anticancer assay; type: cell-based, human
RPMI-8226 = experiment: NCI in vitro five dose anticancer assay; type: cell-based, human
DU-145 = experiment: NCI in vitro five dose anticancer assay; type: cell-based, human
MDA-MB231/ATCC = experiment: NCI in vitro five dose anticancer assay; type: cell-based, human
HS 578T = experiment: NCI in vitro five dose anticancer assay; type: cell-based, human
OVCAR-8 = experiment: NCI in vitro five dose anticancer assay; type: cell-based, human
HOP-62 = experiment: NCI in vitro five dose anticancer assay; type: cell-based, human
SK-OV-3 = experiment: NCI in vitro five dose anticancer assay; type: cell-based, human
HOP-92 = experiment: NCI in vitro five dose anticancer assay; type: cell-based, human
NCI/ADR-RES = experiment: NCI in vitro five dose anticancer assay; type: cell-based, human
KM12 = experiment: NCI in vitro five dose anticancer assay; type: cell-based, human
SN12C = experiment: NCI in vitro five dose anticancer assay; type: cell-based, human
[1] = test system: Bcl-2, Bax, and cleaved caspases (3, 8, and 9) in A549 cells; experiment: Western blotting, apoptosis markers; type: cell-based, human; details: 48 h, 1, 3 and 6 μM, western blot; for levels of Bax / levels of cleaved caspase 3 / levels of cleaved caspase 9: dose-dependent
[2] = test system: p53, p21, cyclin B1 and Cdc2 in A549 cells; experiment: Western blotting, p53 and cell cycle regulators; type: cell-based, human; details: 1, 3 and 6 μM, western blot; for expression of Cdc2 / expression of cyclin B1 / expression of p21: dose dependent
A549/ATCC = experiment: NCI in vitro five dose anticancer assay; type: cell-based, human
SR = experiment: NCI in vitro five dose anticancer assay; type: cell-based, human
MDA-MB-435 = experiment: NCI in vitro five dose anticancer assay; type: cell-based, human
NCI-H460 = experiment: NCI in vitro five dose anticancer assay; type: cell-based, human
[3] = test system: p-PI3K, p-Akt, p-mTOR and p-GSK-3β in K-562 cells; experiment: Western blotting, PI3K/Akt/mTOR pathway; type: cell-based, human; details: 1, 3, or 6 μM, western blot, dose-dependent
[4] = test system: Bax and cleaved caspases (3, 8, and 9) in K-562 cells; experiment: Western blotting, apoptosis markers; type: cell-based, human; details: 24 h, 1, 3 and 6 μM, western blot; for levels of Bax / levels of cleaved caspase 3 / levels of cleaved caspase 9: dose-dependent
SF-268 = experiment: NCI in vitro five dose anticancer assay; type: cell-based, human
HT29 = experiment: NCI in vitro five dose anticancer assay; type: cell-based, human
UACC-62 = experiment: NCI in vitro five dose anticancer assay; type: cell-based, human
PI3K-δ = PI3K-δ (Homo sapiens, UniProt O00329); experiment: PI3K biochemical assay
Sequence of PI3K-δ (O00329 whole entry): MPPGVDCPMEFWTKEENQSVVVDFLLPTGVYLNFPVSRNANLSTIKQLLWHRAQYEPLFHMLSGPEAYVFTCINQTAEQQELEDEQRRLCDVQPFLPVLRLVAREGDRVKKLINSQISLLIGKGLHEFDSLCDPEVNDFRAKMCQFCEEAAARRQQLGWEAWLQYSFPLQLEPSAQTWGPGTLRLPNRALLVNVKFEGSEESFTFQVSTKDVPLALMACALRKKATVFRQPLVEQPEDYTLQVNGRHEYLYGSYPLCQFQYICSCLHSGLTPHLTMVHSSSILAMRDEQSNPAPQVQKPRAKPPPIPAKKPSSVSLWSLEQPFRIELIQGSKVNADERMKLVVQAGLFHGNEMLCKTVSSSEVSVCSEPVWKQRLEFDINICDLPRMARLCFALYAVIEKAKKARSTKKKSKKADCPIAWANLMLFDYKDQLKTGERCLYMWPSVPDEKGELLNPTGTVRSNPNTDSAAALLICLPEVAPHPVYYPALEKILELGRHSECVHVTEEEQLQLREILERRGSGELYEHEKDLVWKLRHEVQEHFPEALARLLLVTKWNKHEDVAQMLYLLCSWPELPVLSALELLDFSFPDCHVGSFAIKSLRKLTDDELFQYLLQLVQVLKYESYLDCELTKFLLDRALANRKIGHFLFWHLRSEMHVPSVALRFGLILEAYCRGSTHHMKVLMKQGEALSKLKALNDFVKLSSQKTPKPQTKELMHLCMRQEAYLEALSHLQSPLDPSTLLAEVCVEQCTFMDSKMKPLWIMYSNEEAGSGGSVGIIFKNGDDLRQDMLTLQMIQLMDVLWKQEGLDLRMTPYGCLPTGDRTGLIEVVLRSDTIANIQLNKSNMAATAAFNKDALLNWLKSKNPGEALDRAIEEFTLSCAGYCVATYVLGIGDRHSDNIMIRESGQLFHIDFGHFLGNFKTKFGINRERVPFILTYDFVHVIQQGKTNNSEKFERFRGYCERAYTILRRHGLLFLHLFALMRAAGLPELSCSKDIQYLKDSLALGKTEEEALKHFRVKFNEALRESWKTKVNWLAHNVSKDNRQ
Sequence of PI3K-δ (P27986 whole entry partner): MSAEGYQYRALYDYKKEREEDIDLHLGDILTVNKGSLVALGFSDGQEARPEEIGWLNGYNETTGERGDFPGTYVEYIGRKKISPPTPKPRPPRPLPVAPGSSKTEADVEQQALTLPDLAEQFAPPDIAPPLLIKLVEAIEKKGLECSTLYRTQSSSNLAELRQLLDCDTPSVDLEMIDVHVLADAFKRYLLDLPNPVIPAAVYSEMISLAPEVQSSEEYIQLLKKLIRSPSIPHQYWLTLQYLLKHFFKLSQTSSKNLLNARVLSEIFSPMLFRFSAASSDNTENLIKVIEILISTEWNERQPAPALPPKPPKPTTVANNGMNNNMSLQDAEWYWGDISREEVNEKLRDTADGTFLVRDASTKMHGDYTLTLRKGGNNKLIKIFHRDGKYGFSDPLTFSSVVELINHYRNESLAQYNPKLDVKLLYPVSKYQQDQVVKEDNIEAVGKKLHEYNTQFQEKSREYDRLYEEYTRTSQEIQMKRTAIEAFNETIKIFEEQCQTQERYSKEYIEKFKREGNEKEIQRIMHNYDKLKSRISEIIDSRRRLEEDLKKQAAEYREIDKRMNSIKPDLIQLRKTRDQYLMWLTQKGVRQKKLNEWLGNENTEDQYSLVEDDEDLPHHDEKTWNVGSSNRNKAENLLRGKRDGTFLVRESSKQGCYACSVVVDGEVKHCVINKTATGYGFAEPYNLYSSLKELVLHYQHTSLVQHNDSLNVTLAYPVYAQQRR

TK-10 = experiment: NCI in vitro five dose anticancer assay; type: cell-based, human
SF-539 = experiment: NCI in vitro five dose anticancer assay; type: cell-based, human
A498 = experiment: NCI in vitro five dose anticancer assay; type: cell-based, human
RXF 393 = experiment: NCI in vitro five dose anticancer assay; type: cell-based, human
K-562 cells = experiment: Cell cycle analysis by flow cytometry; type: cell-based, human; details: 24 h
CCRF-CEM = experiment: NCI in vitro five dose anticancer assay; type: cell-based, human
UACC-257 = experiment: NCI in vitro five dose anticancer assay; type: cell-based, human
OVCAR-3 = experiment: NCI in vitro five dose anticancer assay; type: cell-based, human
SF-295 = experiment: NCI in vitro five dose anticancer assay; type: cell-based, human
[5] = Ovarian cancer, five dose assay
[6] = Non-small cell lung cancer, five dose assay

## COc1ccc(-c2cc(C(=O)NN=C(/C=C\c3ccc(Cl)cc3)c3ccc(N)cc3)c3ccccc3n2)cc1 [Compound 9i, N’-((Z)-1-(4-Aminophenyl)-3-(4-chlorophenyl)allylidene)-2-(4-methoxphenyl)quinoline-4-carbohydrazide]
OVCAR-5; [5]
  GI50: 5.51 µM
MOLT-4; Leukemia, five dose assay
  GI50: 3.3 µM
RPMI-8226; Leukemia, five dose assay
  GI50: 3.86 µM
DU-145; Prostate cancer, five dose assay
  GI50: 3.16 µM
MDA-MB231/ATCC; Breast cancer, MDA-MB231/ATCC, five dose assay
  GI50: 3.28 µM
HS 578T; Breast cancer, HS 578T, five dose assay
  GI50: 1.05 µM
OVCAR-8; [5]
  GI50: 4.16 µM
HOP-62; [6]
  GI50: 3.21 µM
SK-OV-3; [5]
  GI50: 3.32 µM
HOP-92; [6]
  GI50: 1.92 µM
NCI/ADR-RES; [5]
  GI50: 0.519 µM
KM12; Colon cancer, five dose assay
  GI50: 1.15 µM
SN12C; Renal cancer, five dose assay
  GI50: 4.27 µM
[1]
  levels of Bcl-2: decreased
  levels of cleaved caspase 8: not altered
  levels of Bax: increased
  levels of cleaved caspase 3: increased
  levels of cleaved caspase 9: increased
[2]
  expression of wild type p53: upregulated
  expression of Cdc2: attenuated
  expression of cyclin B1: attenuated
  expression of p21: significantly induced
A549/ATCC; Non-small cell lung cancer, A549/ATCC, five dose assay
  GI50: 2.33 µM
SR; Leukemia, five dose assay
  GI50: 0.595 µM
MDA-MB-435; Melanoma, five dose assay
  GI50: 0.305 µM
NCI-H460; [6]
  GI50: 1.89 µM
[3]
  levels of phosphorylated Akt (at Ser473): decreases
  levels of phosphorylated GSK-3β: decreases
  levels of phosphorylated PI3K (at Tyr458): decreases
  levels of phosphorylated mTOR (at Ser2448): decreases
[4]
  levels of cleaved caspase 8: not change
  levels of Bax: increased
  levels of cleaved caspase 3: increased
  levels of cleaved caspase 9: increased
SF-268; CNS cancer, five dose assay
  GI50: 2.19 µM
HT29; Colon cancer, HT29, five dose assay
  GI50: 1.13 µM
UACC-62; Melanoma, five dose assay
  GI50: 0.556 µM
PI3K-δ; read-out: IC50 (nM) PI3K-δ, ADP-Glo, ATP 10 μM
  IC50: 438 nM
TK-10; Renal cancer, five dose assay
  GI50: 52.3 µM
SF-539; CNS cancer, five dose assay
  GI50: 1.41 µM
A498; Renal cancer, five dose assay
  GI50: 0.375 µM
RXF 393; Renal cancer, five dose assay
  GI50: 0.698 µM
K-562 cells; 1 μM
  percentage of cells in the G2/M phase: 2.95%
K-562 cells; 3 μM
  percentage of cells in the G2/M phase: 30.7%
K-562 cells; 6 μM
  percentage of cells in the G2/M phase: 49.3%
CCRF-CEM; Leukemia, five dose assay
  GI50: 5.84 µM
UACC-257; Melanoma, five dose assay
  GI50: > 100 µM
OVCAR-3; [5]
  GI50: 0.462 µM
SF-295; CNS cancer, five dose assay
  GI50: 0.54 µM

## Cc1ccc(-c2cc(C(=O)NN=C(/C=C\c3ccc(Cl)cc3)c3ccc(N)cc3)c3ccccc3n2)cc1 [Compound 9j, N’-((Z)-1-(4-Aminophenyl)-3-(4-chlorophenyl)allylidene)-2-(4-methylphenyl)quinoline-4-carbohydrazide]
OVCAR-5; Homo sapiens
  GI50: 8.43 µM
MOLT-4; Homo sapiens
  GI50: 3.23 µM
RPMI-8226; Homo sapiens
  GI50: 4.1 µM
DU-145; Homo sapiens
  GI50: 3.68 µM
MDA-MB231/ATCC; Homo sapiens, MDA-MB-231
  GI50: 3.94 µM
HS 578T; Homo sapiens, Hs-578T
  GI50: 4.68 µM
OVCAR-8; Homo sapiens
  GI50: 5.25 µM
HOP-62; Homo sapiens
  GI50: 4.62 µM
SK-OV-3; Homo sapiens
  GI50: 4.94 µM
HOP-92; Homo sapiens
  GI50: 4.1 µM
NCI/ADR-RES; Homo sapiens
  GI50: 2.54 µM
KM12; Homo sapiens
  GI50: 3.46 µM
SN12C; Homo sapiens
  GI50: 6.84 µM
[1]
  levels of Bcl-2: decreased
  levels of cleaved caspase 8: not altered
  levels of Bax: increased
  levels of cleaved caspase 3: increased
  levels of cleaved caspase 9: increased
[2]
  expression of wild type p53: upregulated
  expression of Cdc2: attenuated
  expression of cyclin B1: attenuated
  expression of p21: significantly induced
A549/ATCC; Homo sapiens, A549
  GI50: 4.79 µM
SR; Homo sapiens
  GI50: 3.29 µM
MDA-MB-435; Homo sapiens
  GI50: 1 µM
NCI-H460; Homo sapiens
  GI50: 3.51 µM
[3]
  levels of phosphorylated Akt (at Ser473): decreases
  levels of phosphorylated GSK-3β: decreases
  levels of phosphorylated PI3K (at Tyr458): decreases
  levels of phosphorylated mTOR (at Ser2448): decreases
[4]
  levels of cleaved caspase 8: not change
  levels of Bax: increased
  levels of cleaved caspase 3: increased
  levels of cleaved caspase 9: increased
SF-268; Homo sapiens
  GI50: 4.09 µM
HT29; Homo sapiens, HT-29
  GI50: 3.35 µM
UACC-62; Homo sapiens
  GI50: 2.06 µM
PI3K-δ
  pIC50: 6.33
TK-10; Homo sapiens
  GI50: 8.51 µM
SF-539; Homo sapiens
  GI50: 2.43 µM
A498; Homo sapiens
  GI50: 1.64 µM
RXF 393; Homo sapiens
  GI50: 1.63 µM
K-562 cells; 1 μM
  percentage of cells in the G2/M phase: 5.1%
K-562 cells; 3 μM
  percentage of cells in the G2/M phase: 16.6%
K-562 cells; 6 μM
  percentage of cells in the G2/M phase: 41.7%
CCRF-CEM; Homo sapiens
  GI50: 4.53 µM
UACC-257; Homo sapiens
  GI50: 33.7 µM
OVCAR-3; Homo sapiens
  GI50: 2.98 µM
SF-295; Homo sapiens
  GI50: 3.13 µM
